Results from patent publication US12496346B2, “Phospholipid-flavagline conjugates and methods of using the same for targeted cancer therapy” (Cellectar Biosciences, Inc., priority 2019, dated 2025).
Like-named read-outs stand apart in the source and are kept apart here.

What was measured:
in vivo = type: in vivo, mice
Protocol: Listed in Table 5 are the doses administered to the mice, and how many mice were alive after treatment (“3/3” indicates 3 out of 3 mice were alive). […] MTD for CLR 1865 was between 5 and 10 mg/kg.

Plasma stability [1] = assay: Plasma stability
Protocol: (§2) A small amount of molecule was exposed to plasma, and the plasma was then analyzed via HPLC or MS to determine if the molecule was degraded.

in vitro [2] = conditions: human, plasma
Protocol: as §2

Plasma stability [3] = assay: Plasma stability; remark: listed apart in the source
Protocol: as §2

in vitro [4] = conditions: mouse, plasma
Protocol: as §2

[5] = tested on: A549 (human lung adenocarcinoma); assay: cells; type: cell-based; conditions: for Therapeutic Index (TI), second value in parentheses: from the NHDF value in parentheses
[6] = tested on: Colorectal (HCT-116) tumor; assay: In vivo imaging of targeted delivery; design: species or system nude mouse
Protocol: Initial targeting noted within 30 minutes (not shown).

[7] = tested on: Mammary alveolar hyperplasia; assay: Uptake in benign tissues; type: in vivo; conditions: Endogenous Mouse
Intestinal Polyp = assay: Uptake in benign tissues; type: in vivo; conditions: Endogenous Mouse, Adenoma (benign)
A375 and A549 cells = assay: FLV3 levels in cell lysate and growth media by LC/MS; type: cell-based, human; conditions: after 24 hours, CLR 1852 and FLV3 alone administered
Protocol: The levels of FLV3 in cell lysate and growth media were measured using LC/MS. […] Levels of intracellular FLV3 appeared to plateau at 24 hours, while extracellular levels of FLV3 continued to increase.

[8] = tested on: A375 (human malignant melanoma); assay: IC50 of PLE-flavagline conjugates in cell lines; type: cell-based; conditions: A-375, read-out: IC50 A375
[9] = tested on: HCT 116 (human colon cancer); assay: IC50 of PLE-flavagline conjugates in cell lines; type: cell-based; conditions: HCT-116, read-out: IC50 HCT 116
[10] = tested on: NHDF (normal human dermal fibroblasts); assay: IC50 of PLE-flavagline conjugates in cell lines; type: cell-based; conditions: read-out: IC50 NHDF
[11] = tested on: HCT 116 cells (human colon cancer); type: in vivo; conditions: three doses of 1 mg/mg each, FIG. 9
Breast 4T1 = assay: Tumor uptake of PLE; type: in vivo; conditions: Endogenous Mouse (orthotopic), Adenocarcinoma
Protocol: (§1) Tumor cell uptake was measured continuously for 24 hours.

Renal Cell ACHN = assay: Tumor uptake of PLE; type: in vivo; conditions: Nude Mouse (orthotopic), Adenocarcinoma
Protocol: as §1

Colon DLDI = assay: Tumor uptake of PLE; type: in vivo; conditions: SCID Mouse, Colorectal adenocarcinoma
Protocol: as §1

Lung NCI H-69 (Oat Cell) = assay: Tumor uptake of PLE; type: in vivo; conditions: SCID Mouse, Adenocarcinoma
Protocol: as §1

Retinoblastoma = assay: Tumor uptake of PLE; type: in vivo; conditions: Endogenous Mouse, Blastoma
Protocol: as §1

Min Mouse Intestinal = assay: Tumor uptake of PLE; type: in vivo; conditions: Endogenous Mouse, Adenocarcinoma
Protocol: as §1

Glioma L9 = assay: Tumor uptake of PLE; type: in vivo; conditions: Rat xenograft
Protocol: as §1

Colon LS-180 = assay: Tumor uptake of PLE; type: in vivo; conditions: Nude Mouse, Adenocarcinoma
Protocol: as §1

Melanoma = assay: Tumor uptake of PLE; type: in vivo; conditions: Mouse, Adenocarcinoma
Protocol: as §1

Glioma RG2 = assay: Tumor uptake of PLE; type: in vivo; conditions: Rat xenograft
Protocol: as §1

Lung A-549 (NSCLC) = assay: Tumor uptake of PLE; type: in vivo; conditions: SCID Mouse, Adenocarcinoma
Protocol: as §1

Walker-256 = assay: Tumor uptake of PLE; type: in vivo; conditions: Rat, Carcinosarcoma
Protocol: as §1

Pancreatic c-myc = assay: Tumor uptake of PLE; type: in vivo; conditions: Endogenous Mouse, Adenocarcinoma
Protocol: as §1

ColonLS180 = assay: Tumor uptake of PLE; type: in vivo; conditions: SCID Mouse, Colorectal adenocarcinoma
Protocol: as §1

Breast MCF-7 = assay: Tumor uptake of PLE; type: in vivo; conditions: Rat, Adenocarcinoma
Protocol: as §1

Hepatocellular Carcinoma = assay: Tumor uptake of PLE; type: in vivo; conditions: Endogenous Mouse, Adenocarcinoma
Protocol: as §1

Pancreatic Capan-1 = assay: Tumor uptake of PLE; type: in vivo; conditions: Nude Mouse, Adenocarcinoma
Protocol: as §1

Mammary SCC = assay: Tumor uptake of PLE; type: in vivo; conditions: Apc^Min/+ mouse, Squamous cell carcinoma
Protocol: as §1

Adrenal H-295 = assay: Tumor uptake of PLE; type: in vivo; conditions: SCID Mouse, Adenocarcinoma
Protocol: as §1

Melanoma A-375 = assay: Tumor uptake of PLE; type: in vivo; conditions: Nude Mouse, Adenocarcinoma
Protocol: as §1

TRAMP prostate = assay: Tumor uptake of PLE; type: in vivo; conditions: Endogenous Mouse, Adenocarcinoma
Protocol: as §1

Colon CT-26 = assay: Tumor uptake of PLE; type: in vivo; conditions: SCID Mouse, Adenocarcinoma
Protocol: as §1

Prostate PC-3 = assay: Tumor uptake of PLE; type: in vivo; conditions: SCID Mouse, Adenocarcinoma
Protocol: as §1

SCC1 = assay: Tumor uptake of PLE; type: in vivo; conditions: Nude Mouse, Squamous cell carcinoma
Protocol: as §1

Pancreatic Kras = assay: Tumor uptake of PLE; type: in vivo; conditions: Endogenous Mouse, Adenocarcinoma
Protocol: as §1

Renal Cell Caki-2 = assay: Tumor uptake of PLE; type: in vivo; conditions: Nude Mouse (orthotopic), Adenocarcinoma
Protocol: as §1

Esophageal = assay: Tumor uptake of PLE; type: in vivo; conditions: Endogenous Mouse, Adenocarcinoma
Protocol: as §1

Pancreatic BXPC3 = assay: Tumor uptake of PLE; type: in vivo; conditions: Nude Mouse, Adenocarcinoma
Protocol: as §1

Glioma CNS1 = assay: Tumor uptake of PLE; type: in vivo; conditions: Rat xenograft
Protocol: as §1

Prostate LnCap = assay: Tumor uptake of PLE; type: in vivo; conditions: Mouse, Adenocarcinoma
Protocol: as §1

SCC6 = assay: Tumor uptake of PLE; type: in vivo; conditions: Nude Mouse, Adenocarcinoma
Protocol: as §1

Colon-51 = assay: Tumor uptake of PLE; type: in vivo; conditions: SCID Mouse, Colorectal adenocarcinoma
Protocol: as §1

Cervical = assay: Tumor uptake of PLE; type: in vivo; conditions: Endogenous Mouse, Adenocarcinoma
Protocol: as §1

Prostate MatLyLu = assay: Tumor uptake of PLE; type: in vivo; conditions: Rat, Adenocarcinoma
Protocol: as §1

Ovarian HTB-77 = assay: Tumor uptake of PLE; type: in vivo; conditions: Nude Mouse, Adenocarcinoma
Protocol: as §1

Sarcoma (Meth-A) = assay: Tumor uptake of PLE; type: in vivo; conditions: Nude Mouse, Fibrosarcoma
Protocol: as §1

Glioma C6 = assay: Tumor uptake of PLE; type: in vivo; conditions: Rat xenograft
Protocol: as §1

Adrenal RL-251 = assay: Tumor uptake of PLE; type: in vivo; conditions: SCID Mouse, Adenocarcinoma
Protocol: as §1

Mammary AC = assay: Tumor uptake of PLE; type: in vivo; conditions: Apc^Min/+ mouse, Adenocarcinoma
Protocol: as §1

Prostate LuCap = assay: Tumor uptake of PLE; type: in vivo; conditions: Mouse, Adenocarcinoma
Protocol: as §1

Colon HT-29 = assay: Tumor uptake of PLE; type: in vivo; conditions: SCID Mouse, Colorectal adenocarcinoma
Protocol: as §1

[12] = tested on: Human prostate adenocarcinoma cells (PC3); assay: Co-localization with endoplasmic reticulum; type: cell-based; conditions: 5 μM, 24 hours, ER-tracker
From the text: After washing, the cells were co-stained with ER-tracker® per protocol and imaged using Nikon A1R confocal light microscope. CLR 1501 and ER were excited and detected using Alexa-Fluor 488 using standard fluorescein filters.

[13] = tested on: PC3 (grade IV, human prostate adenocarcinoma) cell lines; assay: Co-localization with mitochondria; type: cell-based; conditions: 5 μM, 24 hours, Mitotracker
From the text: The cells were observed using Nikon A1R confocal microscope.

[14] = tested on: Caki-2 tumor cells (human clear cell renal cell carcinoma); assay: Selective uptake of PDC in co-culture; type: cell-based; conditions: 5 μM, 24 hours, co-culture with normal fibroblast
Protocol: (§3) Normal fibroblast and Caki-2 tumor cells (human clear cell renal cell carcinoma) were plated and co-cultured overnight (FIG. 1F). […] The next day cells were washed and co-stained with nucleus stain (Hoescht 33342). CLR 1501 was excited and then detected with an Alexa-Fluor 488 filter.

Normal fibroblast = assay: Selective uptake of PDC in co-culture; type: cell-based; conditions: 5 μM, 24 hours, co-culture with Caki-2
Protocol: as §3

A549 cells = assay: Uptake of PDC after disruption of lipid rafts; type: cell-based, human; conditions: lipid rafts disrupted with methyl b-cyclodextrin vs untreated cells; 5 μM, 24 hours
Protocol: A549 cells were plated overnight into separate wells.

[15] = in vitro, NHDF IC50 relative to cancer cell IC50

COc1ccc([C@@]23Oc4cc(OCCCCNC(=O)OCC(C)(C)SSCCCCCCCCCCCCCCCCCCOP(=O)([O-])OCC[N+](C)(C)C)cc(OC)c4[C@]2(O)[C@H](O)[C@H](C(=O)O)[C@H]3c2ccccc2)cc1 [CLR 1865]
mice alive after treatment (in vivo; Dose 0.1 mg/kg): 3/3
mice alive after treatment (in vivo; Dose 0.25 mg/kg): 3/3
mice alive after treatment (in vivo; Dose 0.5 mg/kg): 3/3
mice alive after treatment (in vivo; Dose 1.0 mg/kg): 3/3
mice alive after treatment (in vivo; Dose 5.0 mg/kg): 3/3
mice alive after treatment (in vivo; Dose 10.0 mg/kg): 2/3
in vivo therapeutic index (in vivo; mice): ≥ 12.5
tolerability compared to FLV3 alone (in vivo; mice): excellent improvement in tolerability
MTD (in vivo; mouse, in vivo, mice, read-out: maximum tolerated dose (MTD)): 5 to 10 mg/kg
human plasma stability (Plasma stability [1]): excellent human plasma stability
half-life (in vitro [2]): > 6.67 h
time stable in mouse plasma (Plasma stability [3]; mouse): 3.3 h
half-life (in vitro [4]): 3.32 h
Therapeutic Index (TI) [5, 15]: 11.64
Therapeutic Index (TI), second value in parentheses ([5]; in vitro): (37.3)

CN1/C(=C/C=C2\CCCC(/C=C/C3=[N+](C)c4ccccc4C3(C)C)=C2c2ccc(CCCCCCCCCCCCCCCCCCOP(=O)(O)OCC[N+](C)(C)C)cc2)C(C)(C)c2ccccc21 [CLR 1502]
time to initial targeting ([6]; 1 mg injected): ≤ 30 min
time to maximum distribution ([6]; 1 mg injected, Pearl Infrared Imaging System): ≤ 24 h
distribution in tumor ([6]; approximately 5.5 hours post injection, 1 mg): the tumor still showed red color

C[N+](C)(C)CCOP(=O)([O-])OCCCCCCCCCCCCCCCCCCc1ccc(I)cc1 [CLR1404]
Tumor Uptake [7]: No
Tumor Uptake (Intestinal Polyp): No

COC(=O)[C@@H]1[C@H](O)[C@]2(O)c3c(OC)cc(OCCCCN)cc3O[C@]2(c2ccc(OC)cc2)[C@H]1c1ccccc1 [FLV3]
levels of FLV3 in the cell lysate (A375 and A549 cells): high levels
levels of FLV3 in the growth media (A375 and A549 cells): Moderate levels
mice alive after treatment (in vivo; Dose 0.1 mg/kg): 3/3
mice alive after treatment (in vivo; Dose 0.25 mg/kg): 3/3
IC50 [8]: 15 nM
IC50 [9]: 9 nM
IC50 [10]: 8 nM
IC50 ([5]; Homo sapiens, A549, read-out: IC50 A549): 90 nM
Therapeutic Index (TI) [5, 15]: 0.89

COC(=O)[C@H]1[C@@H](O)[C@@]2(O)c3c(OC)cc(OCCCCNC(=O)OCC(C)(C)SSCCCCCCCCCCCCCCCCCCOP(=O)([O-])OCC[N+](C)(C)C)cc3O[C@@]2(c2ccc(OC)cc2)[C@@H]1c1ccccc1 [CLR 1852]
mice alive after treatment (in vivo; Dose 0.1 mg/kg): 3/3
mice alive after treatment (in vivo; Dose 0.25 mg/kg): 3/3
mice alive after treatment (in vivo; Dose 0.5 mg/kg): 3/3
mice alive after treatment (in vivo; Dose 1.0 mg/kg): 3/3
mice alive after treatment (in vivo; Dose 5.0 mg/kg): 3/3
mice alive after treatment (in vivo; Dose 10.0 mg/kg): 3/3
maximum tolerated dose (MTD) (in vivo; mice): did not achieve a maximum tolerated dose
tolerability compared to FLV3 alone (in vivo; mice): excellent improvement in tolerability
in vivo therapeutic index (in vivo; mouse, in vivo): at least 25
tumor volume compared to vehicle [11]: reduced the tumor volume beginning at around 27 days
human plasma stability (Plasma stability [1]): excellent human plasma stability
half-life (in vitro [2]): > 6.67 h
time stable in plasma (Plasma stability [3]; species not given): at least 7 hours
half-life (in vitro [4]): > 6.67 h
Therapeutic Index (TI) [5]: 360
Therapeutic Index (TI), second value in parentheses ([5]; in vitro): (915)
cytotoxic potency compared to FLV3 alone ([5]; various concentrations, FIG. 8 (A549 and NHDF)): modest loss in potency

C[N+](C)(C)CCOP(=O)([O-])OCCCCCCCCCCCCCCCCCCc1ccc(C2=C3C=CC=[N+]3[B-](F)(F)n3cccc32)cc1 [CLR 1501]
Tumor Uptake (Breast 4T1): Yes
Tumor Uptake (Renal Cell ACHN): Yes
Tumor Uptake (Colon DLDI): Yes
Tumor Uptake (Lung NCI H-69 (Oat Cell)): Yes
Tumor Uptake (Retinoblastoma): Yes
Tumor Uptake (Min Mouse Intestinal): Yes
Tumor Uptake (Glioma L9): Yes
Tumor Uptake (Colon LS-180): Yes
Tumor Uptake (Melanoma): Yes
Tumor Uptake (Glioma RG2): Yes
Tumor Uptake (Lung A-549 (NSCLC)): Yes
Tumor Uptake (Walker-256): Yes
Tumor Uptake (Pancreatic c-myc): Yes
Tumor Uptake (ColonLS180): Yes
Tumor Uptake (Breast MCF-7): Yes
Tumor Uptake (Hepatocellular Carcinoma): Yes
Tumor Uptake (Pancreatic Capan-1): Yes
Tumor Uptake (Mammary SCC): Yes
Tumor Uptake (Adrenal H-295): Yes
Tumor Uptake (Melanoma A-375): Yes
Tumor Uptake (TRAMP prostate): Yes
Tumor Uptake (Colon CT-26): Yes
Tumor Uptake (Prostate PC-3): Yes
Tumor Uptake (SCC1): Yes
Tumor Uptake (Pancreatic Kras): Yes
Tumor Uptake (Renal Cell Caki-2): Yes
Tumor Uptake (Esophageal): Yes
Tumor Uptake (Pancreatic BXPC3): Yes
Tumor Uptake (Glioma CNS1): Yes
Tumor Uptake (Prostate LnCap): Yes
Tumor Uptake (SCC6): Yes
Tumor Uptake (Colon-51): Yes
Tumor Uptake (Cervical): Yes
Tumor Uptake (Prostate MatLyLu): Yes
Tumor Uptake (Ovarian HTB-77): Yes
Tumor Uptake (Sarcoma (Meth-A)): Yes
Tumor Uptake (Glioma C6): Yes
Tumor Uptake (Adrenal RL-251): Yes
Tumor Uptake (Mammary AC): Yes
Tumor Uptake (Prostate LuCap): Yes
Tumor Uptake (Colon HT-29): Yes
co-localization with ER [12]: co-localized with ER in malignant
co-localization with mitochondria [13]: co-localized with mitochondria
localization in Caki-2 cells [14]: highly localized
localization in normal fibroblast cells (Normal fibroblast): minimally
reduction in uptake (A549 cells): 60%
